#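 Where inhibition never reached the appropriate level, the endpoint shown equals the highest concentration tested. Otherwise, values were interpolated linearly from a five-concentration, 48-hour dose response in 96-well plates. Abbreviation: GI50, concentration required for 50% inhibition of growth.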 Active and inactive are the calls of the source. Rule as the data show it: active = GI50 up to about 1.1 µM and inactive = higher.
# Columns and labels:
# Experiment in all cases: NCI tumour cell line growth inhibition, 48 h
# 786-0 = system: 786-0
# A498 = system: A498
# A549 = system: A549
# ACHN = system: ACHN
# BT-549 = system: BT-549
# CAKI-1 = system: CAKI-1
# CCRF-CEM = system: CCRF-CEM
# COLO 205 = system: COLO 205
# DU-145 = system: DU-145
# EKVX = system: EKVX
# HCC 2998 = system: HCC 2998
# HCT-116 = system: HCT-116
# HCT-15 = system: HCT-15
# HOP-62 = system: HOP-62
# HT-29 = system: HT-29
# IGROV-1 = system: IGROV-1
# K562 = system: K562
# KM12 = system: KM12
# LOX IMVI = system: LOX IMVI
# M14 = system: M14
# MCF7 = system: MCF7
# MDA-MB-231 = system: MDA-MB-231
# MDA-MB-435 = system: MDA-MB-435
# MDA-N = system: MDA-N
# MOLT-4 = system: MOLT-4
# Malme-3M = system: Malme-3M
# NCI-H226 = system: NCI-H226
# NCI-H23 = system: NCI-H23
# NCI-H522 = system: NCI-H522
# NCI/ADR-RES = system: NCI/ADR-RES
# OVCAR-3 = system: OVCAR-3
# OVCAR-4 = system: OVCAR-4
# OVCAR-5 = system: OVCAR-5
# OVCAR-8 = system: OVCAR-8
# PC-3 = system: PC-3
# RPMI-8226 = system: RPMI-8226
# SF-268 = system: SF-268
# SF-295 = system: SF-295
# SF-539 = system: SF-539
# SK-MEL-2 = system: SK-MEL-2
# SK-MEL-5 = system: SK-MEL-5
# SK-OV-3 = system: SK-OV-3
# SN12C = system: SN12C
# SR = system: SR
# SW-620 = system: SW-620
# T47D = system: T47D
# TK-10 = system: TK-10
# U-251 = system: U-251
# UACC-257 = system: UACC-257
# UACC-62 = system: UACC-62
# UO-31 = system: UO-31
# HL-60 = system: HL-60
# HOP-92 = system: HOP-92
# NCI-H460 = system: NCI-H460
# RXF 393 = system: RXF 393
# SNB-19 = system: SNB-19
# SNB-75 = system: SNB-75
# Hs-578T = system: Hs-578T
# SK-MEL-28 = system: SK-MEL-28
compound,measurement,setting,value
CCCCNC(=S)Nc1nc(C(=O)NNC(=S)NCc2ccccc2)cs1,GI50,786-0,39.4 µM (inactive)
same,GI50,A498,> 100 µM (inactive)
same,GI50,A549,52.4 µM (inactive)
same,GI50,ACHN,26.6 µM (inactive)
same,GI50,BT-549,67 µM (inactive)
same,GI50,CAKI-1,29.6 µM (inactive)
same,GI50,CCRF-CEM,> 10 µM (inactive)
same,GI50,COLO 205,33.9 µM (inactive)
same,GI50,DU-145,39.6 µM (inactive)
same,GI50,EKVX,42.8 µM (inactive)
same,GI50,HCC 2998,36.6 µM (inactive)
same,GI50,HCT-116,32.9 µM (inactive)
same,GI50,HCT-15,10.2 µM
same,GI50,HOP-62,> 100 µM (inactive)
same,GI50,HT-29,37.2 µM (inactive)
same,GI50,IGROV-1,30.1 µM (inactive)
same,GI50,K562,34.4 µM (inactive)
same,GI50,KM12,49.1 µM (inactive)
same,GI50,LOX IMVI,18.7 µM (inactive)
same,GI50,M14,38.6 µM (inactive)
same,GI50,MCF7,12.3 µM (inactive)
same,GI50,MDA-MB-231,66.4 µM (inactive)
same,GI50,MDA-MB-435,35.8 µM (inactive)
same,GI50,MDA-N,39.9 µM (inactive)
same,GI50,MOLT-4,19.1 µM (inactive)
same,GI50,Malme-3M,50.5 µM (inactive)
same,GI50,NCI-H226,32.9 µM (inactive)
same,GI50,NCI-H23,75 µM (inactive)
same,GI50,NCI-H522,48.5 µM (inactive)
same,GI50,NCI/ADR-RES,30.1 µM (inactive)
same,GI50,OVCAR-3,52.4 µM (inactive)
same,GI50,OVCAR-4,35.3 µM (inactive)
same,GI50,OVCAR-5,> 100 µM (inactive)
same,GI50,OVCAR-8,24.1 µM (inactive)
same,GI50,PC-3,62.1 µM (inactive)
same,GI50,RPMI-8226,45.9 µM (inactive)
same,GI50,SF-268,20.6 µM (inactive)
same,GI50,SF-295,37.5 µM (inactive)
same,GI50,SF-539,31.9 µM (inactive)
same,GI50,SK-MEL-2,46.9 µM (inactive)
same,GI50,SK-MEL-5,16.3 µM (inactive)
same,GI50,SK-OV-3,88.5 µM (inactive)
same,GI50,SN12C,31 µM (inactive)
same,GI50,SR,8.24 µM (inactive)
same,GI50,SW-620,48.2 µM (inactive)
same,GI50,T47D,13.2 µM (inactive)
same,GI50,TK-10,49.8 µM (inactive)
same,GI50,U-251,34.5 µM (inactive)
same,GI50,UACC-257,20.2 µM (inactive)
same,GI50,UACC-62,19 µM (inactive)
same,GI50,UO-31,23.9 µM (inactive)
COc1ccc2c(c1)CC[C@@H]1[C@@H]2CC[C@]2(C)C(=O)/C(=C/c3ccc(OC)c(OC)c3)C[C@@H]12,GI50,786-0,> 100 µM (inactive)
same,GI50,A498,> 100 µM (inactive)
same,GI50,A549,> 100 µM (inactive)
same,GI50,ACHN,> 100 µM (inactive)
same,GI50,BT-549,> 100 µM (inactive)
same,GI50,CAKI-1,> 100 µM (inactive)
same,GI50,DU-145,> 100 µM (inactive)
same,GI50,EKVX,> 100 µM (inactive)
same,GI50,HCC 2998,> 100 µM (inactive)
same,GI50,HCT-116,65.9 µM (inactive)
same,GI50,HCT-15,> 100 µM
same,GI50,HL-60,> 100 µM (inactive)
same,GI50,HOP-62,> 100 µM (inactive)
same,GI50,HOP-92,97.5 µM (inactive)
same,GI50,KM12,> 100 µM (inactive)
same,GI50,M14,> 100 µM (inactive)
same,GI50,MCF7,> 100 µM (inactive)
same,GI50,MDA-MB-231,> 100 µM (inactive)
same,GI50,MDA-MB-435,> 100 µM (inactive)
same,GI50,MOLT-4,> 100 µM (inactive)
same,GI50,Malme-3M,> 100 µM (inactive)
same,GI50,NCI-H23,97.9 µM (inactive)
same,GI50,NCI-H460,> 100 µM (inactive)
same,GI50,NCI/ADR-RES,> 100 µM (inactive)
same,GI50,OVCAR-3,> 100 µM (inactive)
same,GI50,OVCAR-4,> 100 µM (inactive)
same,GI50,OVCAR-5,> 100 µM (inactive)
same,GI50,PC-3,> 100 µM (inactive)
same,GI50,RPMI-8226,56.2 µM (inactive)
same,GI50,RXF 393,> 100 µM (inactive)
same,GI50,SF-295,> 100 µM (inactive)
same,GI50,SF-539,> 100 µM (inactive)
same,GI50,SK-MEL-2,> 100 µM (inactive)
same,GI50,SK-MEL-5,> 100 µM (inactive)
same,GI50,SK-OV-3,> 100 µM (inactive)
same,GI50,SNB-19,> 100 µM (inactive)
same,GI50,SNB-75,> 100 µM (inactive)
same,GI50,SR,5.07 µM (inactive)
same,GI50,SW-620,> 100 µM (inactive)
same,GI50,TK-10,> 100 µM (inactive)
same,GI50,U-251,> 100 µM (inactive)
same,GI50,UACC-62,> 100 µM (inactive)
same,GI50,UO-31,> 100 µM (inactive)
Cn1c(=O)c(Cl)c(N=[N+]=[N-])c2ccccc21,GI50,A498,> 100 µM (inactive)
same,GI50,A549,94.4 µM (inactive)
same,GI50,ACHN,85.7 µM (inactive)
same,GI50,CAKI-1,78.7 µM (inactive)
same,GI50,CCRF-CEM,55.7 µM (inactive)
same,GI50,COLO 205,> 100 µM (inactive)
same,GI50,DU-145,> 100 µM (inactive)
same,GI50,EKVX,22.1 µM (inactive)
same,GI50,HCC 2998,> 100 µM (inactive)
same,GI50,HCT-116,93.8 µM (inactive)
same,GI50,HCT-15,> 100 µM
same,GI50,HOP-62,> 100 µM (inactive)
same,GI50,HOP-92,84.1 µM (inactive)
same,GI50,HT-29,> 100 µM (inactive)
same,GI50,Hs-578T,> 100 µM (inactive)
same,GI50,IGROV-1,> 100 µM (inactive)
same,GI50,K562,47.1 µM (inactive)
same,GI50,KM12,0.0324 µM (active)
same,GI50,LOX IMVI,55.7 µM (inactive)
same,GI50,MCF7,67.3 µM (inactive)
same,GI50,MDA-MB-231,60.5 µM (inactive)
same,GI50,MDA-N,84.1 µM (inactive)
same,GI50,MOLT-4,23.3 µM (inactive)
same,GI50,Malme-3M,68.9 µM (inactive)
same,GI50,NCI-H226,39.8 µM (inactive)
same,GI50,NCI-H23,> 100 µM (inactive)
same,GI50,NCI-H460,> 100 µM (inactive)
same,GI50,NCI-H522,74.3 µM (inactive)
same,GI50,NCI/ADR-RES,> 100 µM (inactive)
same,GI50,OVCAR-3,33.3 µM (inactive)
same,GI50,OVCAR-4,55.7 µM (inactive)
same,GI50,OVCAR-5,> 100 µM (inactive)
same,GI50,OVCAR-8,> 100 µM (inactive)
same,GI50,PC-3,78.7 µM (inactive)
same,GI50,RXF 393,69.2 µM (inactive)
same,GI50,SF-268,> 100 µM (inactive)
same,GI50,SF-295,> 100 µM (inactive)
same,GI50,SF-539,> 100 µM (inactive)
same,GI50,SK-MEL-28,> 100 µM (inactive)
same,GI50,SK-MEL-2,> 100 µM (inactive)
same,GI50,SK-MEL-5,65.5 µM (inactive)
same,GI50,SK-OV-3,> 100 µM (inactive)
same,GI50,SN12C,56.5 µM (inactive)
same,GI50,SNB-19,> 100 µM (inactive)
same,GI50,SNB-75,25.8 µM (inactive)
same,GI50,SR,58.5 µM (inactive)
same,GI50,SW-620,> 100 µM (inactive)
same,GI50,T47D,64 µM (inactive)
same,GI50,TK-10,> 100 µM (inactive)
same,GI50,U-251,> 100 µM (inactive)
same,GI50,UACC-257,> 100 µM (inactive)
same,GI50,UACC-62,68.1 µM (inactive)
same,GI50,UO-31,> 100 µM (inactive)
